Tested on: MDA-MB-468 complex spheroids with HUVEC/MSC, viability
Assay: Anticancer human tumor MDA-MB-468 cell line growth inhibition;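 also: spheroids exposed to agents for seven days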;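 as to viability, T/C: 100% = DMSO vehicle control viability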
Conditions: for IC50: curve of first compound; for viability, T/C: stronger effect = lower value
Description: Multicellular complex tumor spheroid response to LSD1 Inhibitor Iadademstat in combination with a variety of drugs and investigational agents in selected tumor cell lines
The current study was undertaken to assess response to LSD1 inhibitors in combination with standard-of-care drugs and investigational agents in solid tumor complex spheroid models as well as in the K-562 leukemia. Complex spheroids include a stromal component modeled by human endothelial cells (HUVEC) and fibroblasts modeled by human mesenchymal stem cells (MSCs). The concentration ranges selected for each drug and investigational agent were based upon clinically achievable concentrations if the clinical Cmax of the agent was known.
Compounds. The drugs and investigational agents used in this study are listed on Table 1. All of the agents used, including staurosporine (NSC755774) and gemcitabine (NSC613327), were obtained from the Developmental Therapeutics Program, NCI. FDA-approved anticancer drugs are available from the NCI at http://dtp.nci.nih.gov/branches/dscb/oncology_drugset_explanation.html. Drugs and investigational agents were >95% pure by proton nuclear magnetic resonance (NMR) and liquid chromatography/mass spectrometry (LC/MS). Stock solutions were prepared at 400x in DMSO, stored at -70 degrees C, and diluted in fresh medium prior to their use. The final concentration of DMSO in cell culture wells never exceeded 0.25% (v/v). The FDA-approved anticancer drug set is available from the Developmental Therapeutics Program at https://dtp.cancer.gov/organization/dscb/obtaining/available_plates.htm. All drugs and investigational agents were tested over a range starting from a high concentration at or near the clinical Cmax and decreasing in half-log increments. If the clinical Cmax for an agent had not been determined, the highest concentration tested was 10 microM.
Cell Lines. The patient-derived cancer cell (PDC) lines: 292921-168-R-J2-PDC, K24384-001-R-PDC, and 521955-158-R2-J5-PDC pancreatic carcinomas, 556581-035-R-J1 ovarian carcinoma, 324938-238-R-J1-PDC, 855422-203-R-J1-PDC and 883617-216-R-J1-PDC urothelial bladder carcinomas, 743489-274-T-PDC renal cell carcinoma, 138582-R-J1 Merkel cell tumor, K60290-347-R-J1 and K57222-313-R-J1-PDC glioblastomas, 653999-131-R-J2-PDC, LG0703-F948-PDC, and 349418-098-R-PDC non-small cell lung carcinomas, 885512-296-R-J2-PDC, 171881-019-R-J1-PDC breast carcinomas and 186277-243-T-J2-PDC and 233499-124-R-J2-PDC colon carcinomas were obtained from the NCI Patient-Derived Models Repository (PDMR, https://pdmr.cancer.gov). The established cell lines NCI/ADR-RES (RRID:CVCL_14520 and OVCAR-5 (RRID:CVCL_1628) ovarian carcinomas, 786-O (RRID:CVCL_1051) and A498 (RRID:CVCL_A498) renal cell carcinoma, NCI-H211 (ATCC, cat. CRL-5824; RRID:CVCL_1529), NCI-H196 (ATCC, cat. CRL-5823, RRID:CVCL_1509), SW 1271 (ATCC, cat. CRL-2177, RRID:CVCL_1716) and NCI-H1876 (ATCC, cat. CRL-5902, RRID:CVCL_1503) small cell lung carcinomas, MDA-MB-231 (RRID:CVCL_0062) and MDA-MB-468 (RRID:CVCL_0419)breast carcinomas (10-12). Pooled donor human umbilical vein endothelial cells (HUVEC, Lonza, cat. CC-2519) and human mesenchymal stem cells (hMSC, Lonza, cat. PT-2501) were purchased from Lonza (Walkersville, MD).
Cell Culture. All cells were maintained in an incubator at 37 degrees C and 5% CO2 with 95% humidity. The PDC lines were cultured according to standard operating procedures established by the NCI PDMR (https://pdmr.cancer.gov). Briefly all PDCs were thawed and cultured in Matrigel-coated flasks prepared with a working solution of 1X Ham's F-12 nutrient mix, without supplementation (Invitrogen, Waltham, MA, cat. 11765054), 100 U/mL penicillin-streptomycin (Invitrogen, cat. 15140122), and 2.5% Matrigel (Corning Inc., Corning, NY, cat. 354248) for the first three passages. […]

In the case of `CCc1c2c(nc3ccc(O)cc13)-c1cc3c(c(=O)n1C2)COC(=O)[C@]3(O)CC` + NC1CC1c1ccc(-c2cccc(O)c2)cc1, the IC50 (second compound 0.1 µM) is reported as less than 0.000949 µM, the IC50 (second compound 0.316 µM) is reported as less than 0.000949 µM and the IC50 (second compound 1 µM) is reported as less than 0.000949 µM. The IC50 (second compound 3.16 µM) was less than 0.000949 µM, the IC50 (second compound 10 µM) was less than 0.000949 µM and the viability, T/C (second compound 0.1 µM, first compound 0.000949 µM) was 4.36%. The viability, T/C (second compound 0.1 µM, first compound 0.003 µM) was 3.78%, the viability, T/C (second compound 0.1 µM, first compound 0.00949 µM) was 2.14% and the viability, T/C (second compound 0.1 µM, first compound 0.03 µM) was 0.44%. The viability, T/C (second compound 0.1 µM, first compound 0.0949 µM) was 0.43%, the viability, T/C (second compound 0.1 µM, first compound 0.3 µM) was 0.53% and the viability, T/C (second compound 0.316 µM, first compound 0.000949 µM) was 4.17%. It also gave a viability, T/C (second compound 0.316 µM, first compound 0.003 µM) of 3.69%, a viability, T/C (second compound 0.316 µM, first compound 0.00949 µM) of 1.95% and a viability, T/C (second compound 0.316 µM, first compound 0.03 µM) of 0.43%. It also gave a viability, T/C (second compound 0.316 µM, first compound 0.0949 µM) of 0.4%, a viability, T/C (second compound 0.316 µM, first compound 0.3 µM) of 0.49% and a viability, T/C (second compound 1 µM, first compound 0.000949 µM) of 3.6%. It also gave a viability, T/C (second compound 1 µM, first compound 0.003 µM) of 3.54%, a viability, T/C (second compound 1 µM, first compound 0.00949 µM) of 2.31% and a viability, T/C (second compound 1 µM, first compound 0.03 µM) of 0.52%. The viability, T/C (second compound 1 µM, first compound 0.0949 µM) was 0.36%, the viability, T/C (second compound 1 µM, first compound 0.3 µM) was 0.52% and the viability, T/C (second compound 3.16 µM, first compound 0.000949 µM) was 4.14%. It also gave a viability, T/C (second compound 3.16 µM, first compound 0.003 µM) of 3.66%, a viability, T/C (second compound 3.16 µM, first compound 0.00949 µM) of 2.43% and a viability, T/C (second compound 3.16 µM, first compound 0.03 µM) of 0.36%. The viability, T/C (second compound 3.16 µM, first compound 0.0949 µM) was 0.43%, the viability, T/C (second compound 3.16 µM, first compound 0.3 µM) was 0.47% and the viability, T/C (second compound 10 µM, first compound 0.000949 µM) was 4.14%. For the same compound, the viability, T/C (second compound 10 µM, first compound 0.003 µM) was 3.24%, the viability, T/C (second compound 10 µM, first compound 0.00949 µM) was 2.07% and the viability, T/C (second compound 10 µM, first compound 0.03 µM) was 0.38%. It also gave a viability, T/C (second compound 10 µM, first compound 0.0949 µM) of 0.56% and a viability, T/C (second compound 10 µM, first compound 0.3 µM) of 0.6%.

With `O=C(c1cc(Cc2n[nH]c(=O)c3ccccc23)ccc1F)N1CCN(C(=O)C2CC2)CC1` + NC1CC1c1ccc(-c2cccc(O)c2)cc1 the IC50 (second compound 0.1 µM) was 0.909 µM, the IC50 (second compound 0.316 µM) was 0.84 µM and the IC50 (second compound 1 µM) was 0.645 µM. It also gave an IC50 (second compound 3.16 µM) of 0.677 µM, an IC50 (second compound 10 µM) of 0.144 µM and a viability, T/C (second compound 0.1 µM, first compound 0.0316 µM) of 93.6%. It also gave a viability, T/C (second compound 0.1 µM, first compound 0.1 µM) of 88.1%, a viability, T/C (second compound 0.1 µM, first compound 0.316 µM) of 70.5% and a viability, T/C (second compound 0.1 µM, first compound 1 µM) of 52.7%. For the same compound, the viability, T/C (second compound 0.1 µM, first compound 3.16 µM) was 18.6%, the viability, T/C (second compound 0.1 µM, first compound 10 µM) was 14.2% and the viability, T/C (second compound 0.316 µM, first compound 0.0316 µM) was 88.6%. It also gave a viability, T/C (second compound 0.316 µM, first compound 0.1 µM) of 88.2%, a viability, T/C (second compound 0.316 µM, first compound 0.316 µM) of 76% and a viability, T/C (second compound 0.316 µM, first compound 1 µM) of 46.2%. The viability, T/C (second compound 0.316 µM, first compound 3.16 µM) was 16.2%, the viability, T/C (second compound 0.316 µM, first compound 10 µM) was 11.9% and the viability, T/C (second compound 1 µM, first compound 0.0316 µM) was 98.2%. The viability, T/C (second compound 1 µM, first compound 0.1 µM) was 82.3%, the viability, T/C (second compound 1 µM, first compound 0.316 µM) was 66.7% and the viability, T/C (second compound 1 µM, first compound 1 µM) was 43.4%. The viability, T/C (second compound 1 µM, first compound 3.16 µM) was 13.9%, the viability, T/C (second compound 1 µM, first compound 10 µM) was 8.61% and the viability, T/C (second compound 3.16 µM, first compound 0.0316 µM) was 82%. The viability, T/C (second compound 3.16 µM, first compound 0.1 µM) was 75.4%, the viability, T/C (second compound 3.16 µM, first compound 0.316 µM) was 72.5% and the viability, T/C (second compound 3.16 µM, first compound 1 µM) was 38.7%. For the same compound, the viability, T/C (second compound 3.16 µM, first compound 3.16 µM) was 12.5%, the viability, T/C (second compound 3.16 µM, first compound 10 µM) was 7.33% and the viability, T/C (second compound 10 µM, first compound 0.0316 µM) was 63%. The viability, T/C (second compound 10 µM, first compound 0.1 µM) was 51.4%, the viability, T/C (second compound 10 µM, first compound 0.316 µM) was 43.6% and the viability, T/C (second compound 10 µM, first compound 1 µM) was 26.6%. It also gave a viability, T/C (second compound 10 µM, first compound 3.16 µM) of 13.8% and a viability, T/C (second compound 10 µM, first compound 10 µM) of 8.66%.

Source: PubChem BioAssay AID1918954 (Molecular Pharmacology Branch, DTP, NCI, 2023)
